{
  "source": "patent US20240197712A1",
  "about": "“TGF-BETA INHIBITION FOR IMMUNODEFICIENCY VIRUS REACTIVATION FROM LATENCY, ENHANCEMENT OF IMMUNODEFICIENCY VIRUS-SPECIFIC RESPONSES AND IMMUNODEFICIENCY VIRUS CURE” (Northwestern University, priority 2022, published 2024)",
  "key": {"SIV-env": {"test_system": "SIV-env", "assay": "ImmunoPET/CT, four-cycle study", "assay_type": "in vivo, rhesus macaques", "description": "ImmunoPET/CT for mapping SIV signals in total body scans were conducted in part as reported previously (110). The probe consisted of primatized p7D3 anti-env F(ab)′2 coupled with the chelator DOTA and labeled with Cu64 just prior to administration to the animals. For probe administration, the animals were sedated, and a venous catheter was placed into an arm of leg vein to minimize bleeding of the probe into the tissue surrounding the site of injection. The probe for each animal consisted of ˜1 mg of the p7D3 F(ab)′2 labeled with 2-3 mCi of ^64Cu. After injection, the animals were allowed to recuperate in their cage until the next day. At 24 hours, the animals were again anesthetized with Telazol and the macaque's body was immobilized in dorsal recumbency on the scanner table. Scans were conducted 535 in a Phillips Gemini TF64 scanner. The final CT image was compiled from 200 to 300 slices, depending on macaque size. PET Image analysis was performed using the MIM software. PET/CT fusions were generated scaled according to calculated Standardized Uptake Values (SUV). The SUV scale for the PET scans was selected based on the overall signal intensity of the PET scans (whole body), and the CT scale was selected for optimal visibility of the tissues. All images and maximum image projections were set to the same scale for visual comparisons.\nMultimodal registration and ROI segmentation were executed using the MIM software (MIM Software, Inc., Cleveland, OH) for PET and CT images, encompassing 250 to 300 fractions, depending on the macaque's body size. PET and CT images were fused to quantify changes in SUV (Standardized Uptake Value) within Regions of Interest (ROI), with PET SUV scale determined by overall signal intensity and CT scale optimized for tissue visibility. Segmentations were performed for various anatomical regions: Whole Body, Liver, Lymph nodes, Gut, Kidneys, Spleen, and Vertebrae. The external body was outlined for the Whole-Body contour, while the GRADIENT method PET-Edge and interactive contouring tools were employed for other ROIs. Liver segmentation initially utilized PET-Edge in PET coronal-sectional view, followed by interactive delineation for the structure and the corresponding signals. Kidneys, Spleen, and Vertebrae volume were determined based on CT scans in the cross-sectional view, incorporating PET signals into contours. […] To quantify the signal in the axillary lymph nodes, the data-point in each macaque featuring the strongest PET signal was chosen as a basis for an inhouse Multi-Time-Point Contour Transfer Workflow, followed by interactive contouring of the signal to all time points. The workflow integrated CT scans to establish and map specific ROIs in subsequent scans, thereby accounting for any changes in the animal's orientation at other time points through manual adjustments. To quantify the signal in the gut tissue, the body segment below the stomach to above the cervix was initially isolated. The Gut's SUV was then calculated by extracting the spleen, both kidneys, liver, and bones within the designated body region using Boolean operations."}, "SIVmac239M2": {"test_system": "SIVmac239M2", "assay": "Plasma viral load, four 2-week galunisertib cycles", "assay_type": "in vivo, rhesus macaques", "description": "Rhesus macaques (n=8 main study+4 separate non-concomitant study) were infected with 300 TCID50 of the barcoded SIVmac239M2 stock intravenously and ART (Tenofovir [PMPA], Emtricitabine [FTC] and Dolutegravir [DTG]) was initiated on week 6 pi. Galunisertib treatment was initiated on week 35 p.i. Powder (MedChemExpress—MCE, NJ, USA) was dissolved in water and given orally in a treat twice daily at 20 mg/kg. 4 cycles of 2 weeks daily treatment with 2 weeks wash out period were performed. Macaques 08M156 and A6X003 were given the rhesus recombinant antibody (rhesus/human chimeric) anti-PD1 antibody [NIVOR4LALA; comprising silenced rhesus IgG4k […] constant regions and variable regions from anti-human PD-1, nivolumab; non-human primates reagents resource, NHPRR. Blood viral load was monitored biweekly before and during ART and every 3-4 days during Galunisertib treatment. Colorectal biopsies and LN FNA were collected before and after galunisertib treatment. ART was terminated 3 weeks after the last galunisertib dose and euthanasia and necropsy to harvest tissues were performed at week 58 post infection, tissues samples were flash frozen, fixed in OCT or Z-fix.\nBlood was collected in EDTA tubes and plasma was separated by density gradient centrifugation and used for the determination of plasma VL by SIVgag qRT-PCR at NIRC or at Leidos (Quantitative Molecular Diagnostics Core, AIDS and Cancer Virus Program Frederick National Laboratory). Tissue VL from snap frozen PBMC pellets, colorectal biopsies and LN FNA were performed as described in (77). SIV-TILDA was performed on freshly stored PBMC before cycle 1 and at the end of cycle 4 of galunisertib by Accelevir, Baltimore, MD."}, "SIVmac251 or SIVmac239": {"test_system": "SIVmac251 or SIVmac239", "assay": "Tissue cell-associated vRNA/vDNA, colorectal biopsies and LN FNA", "assay_type": "in vivo, rhesus macaques", "description": "Blood was collected in EDTA tubes and plasma was separated by density gradient centrifugation and used for the determination of plasma VL by SIVgag qRT-PCR at NIRC or at Leidos (Quantitative Molecular Diagnostics Core, AIDS and Cancer Virus Program Frederick National Laboratory). Tissue VL from snap frozen colorectal biopsies and LN FNA were performed at Leidos (A14X004, A14X005 and A14X013) as described in (78) or, for the remaining macaques and from PBMC of all macaques they were performed as described in (77)."}, "U1 cells": {"test_system": "U1 cells", "assay": "PMA-induced HIV reactivation in U1 cells, intracellular p24 staining", "assay_type": "cell-based", "description": "ACH2 cells and U1 cells were obtained through the NIH HIV Reagent Program, Division of AIDS, NIAID, NIH (contributed by Dr. Thomas Folks). Cells ([…]) were cultured in triplicates in RPMI with 10% FBS and Pen/Strep in presence of TGF-β1 (10 ng/ml R&D systems), TGF-β1 and galunisertib (1 μM MedChemExpress), galunisertib alone or mock treated. In the HIV latency reactivation conditions, PMA (Phorbol 12-myristate 13-acetate, SigmaAldrich) was added at 100 ng/ml together with galunisertib or TGF-β1. After 18 hrs, cells were stained intracellularly for p24 using the KC57 antibody (NIH HIV Reagent Program) as previously described (74)."}, "HIV-Bal": {"test_system": "HIV-Bal", "assay": "In vitro HIV-1 replication in SupT1 cells and PHA-PBMC (p24 ELISA)", "assay_type": "cell-based", "settings": "SupT1 cells and PBMC from healthy donors, different concentrations of galunisertib", "description": "For control experiments of the impact of galunisertib on HIV infection of SupT1 cells and PBMC, SupT1 cells and PHA-activated PBMC were cultured respectively at 1 and 2 millions/ml in R10 (in presence of 20 U/ml of IL-2 for the PBMC) and infected with 50 TCID50/10^6 cells of HIV-Bal (0.01 MOI). HIV replication was monitored by p24 ELISA."}},
  "data": [
    {"smiles": "Cc1cccc(-c2nn3c(c2-c2ccnc4ccc(C(N)=O)cc24)CCC3)n1", "note": "[galunisertib, Galunisertib]", "values": [
      {"measurement": "SIV reactivation in tissues by PET/CT", "setting": "SIV-env; Example 5, all macaques, particularly after cycle 2", "value": "Extensive SIV reactivation"},
      {"measurement": "SUV increase in gastrointestinal area and axillary lymph nodes", "setting": "SIV-env; compared to before cycle 1 (BC1)", "value": "significant in cycle 3"},
      {"measurement": "SUV at the level of the spleen or kidney", "setting": "SIV-env; vs BC1", "value": "No SUV increase"},
      {"measurement": "SUV in the liver and whole-body", "setting": "SIV-env; vs BC1", "value": "significant increase in SUV"},
      {"measurement": "Spine SUV", "setting": "SIV-env; vs BC1", "value": "increased significantly with the first cycle"},
      {"measurement": "macaques with increased pVL after start of treatment", "setting": "SIVmac239M2; 20 mg/Kg twice daily orally, 4 cycles", "value": "7 out of 8"},
      {"measurement": "increases in pVL in fully suppressed macaques", "setting": "SIVmac239M2; 08M171, A8R095 and A8L057", "value": "> 102", "unit": "copies/ml"},
      {"measurement": "viral rebound after ART interruption", "setting": "SIVmac239M2; ART discontinued 3 weeks after last dose, 6 weeks follow-up", "value": "One macaque did not rebound"},
      {"measurement": "macaques with viral blips above 100 copies/ml in blood", "setting": "SIVmac239M2; Example 5, 7 macaques, 20 mg/kg twice per day, four 2-weeks cycles", "value": "5 out of the 7"},
      {"measurement": "pVL peaks during treatment", "setting": "SIVmac239M2; macaques with several peaks", "value": "up to 103 copies/ml"},
      {"measurement": "pVL blips in A8T010 and A8R095 after treatment initiation", "setting": "SIVmac239M2; undetectable for over 5 weeks before", "value": "up to 102 copies/ml"},
      {"measurement": "ratio CA-RNA/DNA", "setting": "SIVmac251 or SIVmac239; at least 2 macaques (A14X027 and A14X064)", "value": "increased substantially"},
      {"measurement": "increase in cell associated vRNA (CA-RNA)", "setting": "SIVmac251 or SIVmac239; colorectal biopsies and LN FNA, before vs after treatment", "value": "1 to 3", "unit": "log"},
      {"measurement": "frequency of p24-gag+ cells in unstimulated cultures", "setting": "U1 cells; U1 cells, no PMA, TGF-β1 10 ng/ml or galunisertib 1 μM alone", "value": "slightly increase"},
      {"measurement": "frequency of p24-gag+ cells in the presence of exogenous TGF-β1", "setting": "U1 cells; U1 cells, TGF-β1 10 ng/ml + galunisertib 1 μM, with or without PMA", "value": "restores the frequency of p24-gag+ cells"},
      {"measurement": "frequency of p24-gag+ cells in PMA-stimulated U1 cells", "setting": "U1 cells; galunisertib 1 μM alone, PMA 100 ng/ml", "value": "no impact"},
      {"measurement": "HIV-1 growth curves", "setting": "HIV-Bal", "value": "no impact"}
    ]}
  ]
}
